The nature of series [1]: Lipophilicity, log D of the compound at pH 7.3. It is filed as physicochemical. The conditions noted are these: buffer.
Series [2] is described as follows: Oral bioavailability in rhesus monkey at 10 mg/kg. The series is classed as ADME, organism-based, Macaca mulatta. The conditions noted are these: in vivo.
Series [3] is described as follows: Half life in Sprague-Dawley rat at 3 mg/kg, iv. It is filed as ADME, organism-based. Also noted: dose 3 mg/kg, route intravenous. To be noted: in vivo.
Series [4] in a line: Fraction unbound in rhesus monkey plasma at 3 mg/kg, iv. The series is classed as ADME, organism-based, Macaca mulatta. Also noted: dose 3 mg/kg, route intravenous.
A short description of series [5]: Half life in rhesus monkey at 3 mg/kg, iv. It is filed as ADME, organism-based, Macaca mulatta. The conditions noted are these: in vivo. Further details: dose 3 mg/kg, route intravenous.
A short description of series [6]: Half life in Beagle dog at 3 mg/kg, iv. The series is classed as ADME, organism-based, Canis lupus familiaris. Further details: dose 3 mg/kg, route intravenous. To be noted: in vivo.
Series [7] in a line: Plasma clearance in rhesus monkey at 3 mg/kg, iv. The series is classed as ADME, organism-based, Macaca mulatta. Further details: dose 3 mg/kg, route intravenous.
Series [8] in a line: Plasma clearance in Sprague-Dawley rat at 3 mg/kg, iv. It is filed as ADME, organism-based. Also noted: dose 3 mg/kg, route intravenous.
A short description of series [9]: Fraction unbound in Beagle dog plasma at 3 mg/kg, iv. The series is classed as ADME, organism-based, Canis lupus familiaris. Further details: dose 3 mg/kg, route intravenous.
The nature of series [10]: Fraction unbound in Sprague-Dawley rat plasma at 3 mg/kg, iv. It is filed as ADME, organism-based. Further details: dose 3 mg/kg, route intravenous.
The nature of series [11]: Plasma clearance in Beagle dog at 3 mg/kg, iv. It is filed as ADME, organism-based, Canis lupus familiaris. Also noted: dose 3 mg/kg, route intravenous.

Take `O=S(=O)(Nc1ccc(CCNC[C@H](O)c2cccnc2)cc1)c1ccc(-c2nc(-c3ccc(C(F)(F)F)cc3)cs2)cc1`: the logD (commonly lipophilicity at a set pH, counting ionised and neutral species) in series [1] came to 4.6. Besides, in series [2], the bioavailability (in general, dose-corrected exposure relative to a reference, in per cent) was 4%. In addition, the half-life (usually the time needed for the level to fall by half in the phase considered) is 8 h in series [3], 9 h in series [5] and 14 h in series [6]. In addition, the fraction unbound in [4], in series [9] and in series [10] was 0.02 each time. Also, the clearance (as a rule, the rate of elimination divided by the concentration) in series [7] worked out at 19 mL/min/kg; in [8] it was 62 mL/min/kg; in series [11] it was 20 mL/min/kg.
